Data: US20140356383A1, “ADMINISTRATION OF AN ANTI-GCC ANTIBODY-DRUG CONJUGATE AND A DNA DAMAGING AGENT IN THE TREATMENT OF CANCER” (priority 2013, published 2014)

Tests used:
[1] = tested on: PHTX-21c s.c. xenograft; assay: MLN0264 and 5-Fluorouracil in PHTX-21C s.c. xenografts (Study CPGC-11-EF01); assay type: in vivo, CB-17 SCID mice; conditions: for dAUC: reference vehicle
Experimental: Tumor volume was calculated using the formula: […]

[2] = tested on: PHTX-21c primary human mCRC tumor xenograft; assay: 5F9 vcMMAE single agent efficacy in PHTX-21c; assay type: in vivo, SCID mice; conditions: for anti-tumor activity maintained post-dosing: last dose on day 22
[3] = tested on: PHTX-11c primary human mCRC tumor xenograft; assay: 5F9 vcMMAE single agent efficacy in PHTX-11c; assay type: in vivo, SCID mice
[4] = tested on: 293-GCC#2 tumors; assay: PK/PD study (phospho-histone H3) in 293-GCC#2 tumor bearing mice; assay type: in vivo
Description: Phospho-histone H3 was detected by antibody (Upstate Biotechnology, now Millipore, Billerica, Mass.) staining of paraffin embedded sections of tumors.

[5] = tested on: PHTX-21c s.c. xenograft; assay: MLN0264 and CPT-11 in PHTX-21C s.c. xenografts (Study CPGC-11-EF04)
Experimental: (§1) The endpoints for each treatment group was either a) tumor volume reaches 10% body weight; or b) body weight loss of >20%. The projected tumor volume at the study initiation date was 200 mm^3.
Not greater than one day prior to dosing, all animals were weighed to the nearest gram and grouped. Dosing solutions were vortexed prior to each administration to ensure correct delivery of compound. Animals received approximately 0.1 ml doses administered I.V. using a 1 cc syringe, 27-30 gauge, ½-¾ inch in length.
Tumor volume measurements were obtained twice per week using Vernier calipers (0.01 mm). Tumor volume was calculated using the formula:
(§2) Efficacy was evaluated in terms of % tumor growth inhibition (TGI) and tumor growth delay (TGD). TGI was assessed on an arbitrary day (when the maximum tumor volume (MTV of the control treatment group reaches the maximum allowable tumor volume), using the following formula:
TGD was assessed by calculating T−C, where T=mean time (in days) for treatment group tumors to reach a predetermined size (e.g., 1,000 mm^3), and where C=mean time (in days) for the control group tumors to reach a predetermined size.
(§3) To compare pairs of treatment groups, the following mixed-effects linear regression model was fit to the data using the maximum likelihood method:
(§4) The predicted differences in the log tumor values (Yijk−Yi0k, which can be interpreted as log10 (fold change from day 0)) were taken from the above models to calculate mean AUC values for each treatment group. A dAUC value was then calculated as:
For synergy analyses, the observed differences in the log tumor values were used to calculate AUC values for each animal. […] The AUC for the control, or vehicle, group was calculated using the predicted values from the pairwise models described above.

[6] = tested on: PHTX-17c primary human mCRC tumor xenograft; assay: 5F9 vcMMAE single agent efficacy in PHTX-17c; assay type: in vivo, SCID mice
[7] = tested on: PHTX-11c s.c. xenograft; assay: MLN0264 and CPT-11 in PHTX-11c s.c. xenografts (Study CPGC-12-EF01)
Description: The objective of this study was to explore the combination activity in a model having moderate level of GCC antigen density yet resistance to the immunoconjugate alone.
as §1
Not greater than one day prior to dosing, all animals were weighed to the nearest gram and grouped. Dosing solutions were vortexed prior to each administration to ensure correct delivery of compound. Animals received approximately 0.1 ml doses administered I.V. using a 1 cc syringe, 25-30 gauge, ½-¾ inch in length.
Tumor volume measurements (0.01 mm) were obtained twice per week using Vernier calipers (0.01 mm). Tumor volume was calculated using the formula:
as §2
TGD was assessed by calculating T−C, where T=mean time (in days) for treatment group tumors to reach a predetermined size, and where C=mean time (in days) for the control group tumors to reach a predetermined size (e.g., 1,000 mm^3).
as §3, §4
For synergy analyses, the observed differences in the log tumor values were used to calculate AUC values for each animal. […] The AUC for the control, or vehicle, group was calculated using the predicted values from the pairwise models described above. To address the question of whether the effects of the combination treatments were synergistic, additive, or sub-additive relative to the individual treatments, the following statistics were calculated:
where Ak and Bk are the k^th animal in the individual treatment groups and ABk is the k^th animal in combination treatment group. AUCctl is the model-predicted AUC for the control group and was treated as a constant with no variability. The standard error of the synergy score was calculated as the square root of the sum of squared standard errors across groups A, B, and AB. The degrees of freedom were estimated using the Welch-Satterthwaite equation. P values were calculated by dividing the synergy score by its standard error and tested against a t-distribution (two-tailed) with the above-calculated degrees of freedom.
The effect was classified into four different categories. It was considered synergistic if the synergy score was less than 0 and additive if the synergy score wasn't statistically different from 0. […] Interval analysis, if requested, involved a specified treatment group and time interval compared with another treatment group and time interval. For a given group, time interval, and animal, the tumor growth rate per day was estimated by

[8] = tested on: PHTX-249 Pa primary human pancreatic tumor xenograft; assay: Single-agent 5F9 vcMMAE in PHTX-249 Pa pancreatic xenograft; assay type: in vivo, mice
Description: The purpose of this study was to evaluate in vivo anti-tumor activity induced by combined administration of the 5F9 vcMMAE immunoconjugate (sometimes referred to herein as “MLN0264”) and gemcitabine in mouse xenograft primary human tumor explants (PHTX models of pancreatic cancer. These models included tumor tissue from patients with wild-type and mutant KRAS. Five pancreatic PHTX were generated by Champions Oncology (Hackensack, N.J.) using their CTG platform. 2 PHTX models were developed in-house. GCC expression was evaluated in each of the 7 PHTX models using the automated IHC assay described above.
In vivo anti-tumor studies of single-agent 5F9 vcMMAE immunoconjugate was conducted in all seven of the pancreatic subcutanreous xenograft mouse models. Animals were administered vehicle, free MMAE at 0.135 mg/kg once weekly (QW), a non-GCC targeting ADC at 7.5 mg/kg QW, or 5F9 vcMMAE at 3.75 or 7.5 mg/kg QW. The results for single agent activity of the immunoconjugate in PHTX-215 Pa and PHTX-249 Pa models is shown in FIGS. 15A and 15B, respectively.

[9] = PHTX-21c, ML0264 3.75 mg/kg i.v. QW
[10] = MLN0264 7.5 mg/kg QW i.v., W1-W3

5F9 vcMMAE: 5F9 mAb conjugated to MMAE using a vc (Val-Cit) linker; average drug loading about 3.6
single agent anti-tumor activity ([1]; PHTX-21c, 3.75 mg/kg): relatively low anti-tumor activity
dAUC ([1]; group C: MLN0264 3.75 mg/kg QW): 38.5%
dAUC ([1]; group D: MLN0264 7.5 mg/kg QW): 74.0%
anti-tumor activity maintained post-dosing ([2]; 7.5 mg/kg): 7-8 weeks
anti-tumor activity maintained post-dosing ([2]; 10 mg/kg): > 15 weeks
single agent anti-tumor activity ([2]; 3.75-10 mg/kg I.V. QW×4): Moderate to strong in vivo anti-tumor activity
T/C ([2]; dose 3.75-10 mg/kg, QW, T/C=volume of tumor/control): 0.23
single agent sensitivity ([3]; 1.875-7.5 mg/kg I.V. QW×3 weeks): relatively resistant
T/C ([3]; dose 1.875-7.5 mg/kg, on BIW): 0.5 on
Average % Tumor cells pH 3 positive ([4]; single iv dose 75 μg/kg, 1 hr): 4.525%
Average % Tumor cells pH 3 positive ([4]; single iv dose 75 μg/kg, 4 hr): 2.552%
Average % Tumor cells pH 3 positive ([4]; single iv dose 75 μg/kg, 8 hr): 4.244%
Average % Tumor cells pH 3 positive ([4]; single iv dose 75 μg/kg, 24 hr): 9.8199%
Average % Tumor cells pH 3 positive ([4]; single iv dose 75 μg/kg, 48 hr): 8.692%
Average % Tumor cells pH 3 positive ([4]; single iv dose 75 μg/kg, 96 hr): 8.628%
Average % Tumor cells pH 3 positive ([4]; single iv dose 150 μg/kg, 1 hr): 3.335%
Average % Tumor cells pH 3 positive ([4]; single iv dose 150 μg/kg, 4 hr): 2.785%
Average % Tumor cells pH 3 positive ([4]; single iv dose 150 μg/kg, 8 hr): 4.576%
Average % Tumor cells pH 3 positive ([4]; single iv dose 150 μg/kg, 24 hr): 13.79%
Average % Tumor cells pH 3 positive ([4]; single iv dose 150 μg/kg, 48 hr): 14.26%
Average % Tumor cells pH 3 positive ([4]; single iv dose 150 μg/kg, 96 hr): 14.68%
single agent anti-tumor activity ([5]; PHTX-21c, 3.75 mg/kg): relatively low anti-tumor activity
Days to 1000 mm^3 [5, 9]: >15 days
Mean tumor volume ± S.E.M (mm3) [5, 9]: 869.1 ± 105.2 mm3
T/C [5, 9]: 0.64
TGI [5, 9]: 36.3%
dAUC ([5]; Treated group A (ML0264 3.75 mg/kg) vs reference V (vehicle)): 25.1%
single agent sensitivity ([6]; 0.9375 mg/kg-10 mg/kg I.V. QW×3 weeks): Moderate sensitivity
T/C ([6]; dose 0.938-10 mg/kg, QW, T/C=volume of tumor/control): 0.46
Days to 1000 mm^3 [7, 10]: 13.5 days
Mean tumor volume ± S.E.M [7, 10]: 1263.4 ± 115.8 mm3
T/C [7, 10]: 0.62
TGD [7, 10]: 4.7 days
TGI [7, 10]: 37.7%
single agent anti-tumor activity ([7]; PHTX-11c, 7.5 mg/kg): very low activity
dAUC ([7]; group A: MLN0264 7.5 mg/kg QW, reference vehicle): 22.6%
tumor growth inhibition ([8]; PHTX-249 Pa, by day 21): significant TGI versus vehicle or free MMAE
TGI, % ([8]; model PHTX-249, KRAS Mut G12D, QWx3, day 21): 47%
